Assay results reported in PMC10381533, “Inhibitory Effects of the Fungal Pigment Rubiginosin C on Hyphal and Biofilm Formation in Candida albicans and Candida auris” (Journal of Fungi, 2023).

Assays:
[1] = design: method as in PMID 15921417; details: OA alone; cited from earlier work
C. albicans [DSM 11225] = assay: MIC assay, C. albicans DSM 11225; format: cell-based, Candida albicans; details: tested 250–2 µg/mL
Procedure: (§1) The MICs of rubiginosin- and rutilin-type azaphilones—in detail, Rub A, C, W, Z, and Rut A and B—were determined as described previously using the selected pathogens C. albicans [DSM 11225, DSM 1665], C. albicans CAI-4 HWP1-lacZ [ZK3379] and C. auris [DSM 21092] (see Table S1 for detailed information). All compounds were tested within the concentration range of 250 µg/mL–2 µg/mL for C. albicans [DSM 11225, DSM 1665], C. albicans CAI-4 HWP1-lacZ [ZK3379], C. auris [DSM 21092]. […]
(§2) All compounds were fully dissolved in
(§3) The assay was conducted as a minimum inhibitory concentration (MIC) assay in 96-well round-bottom microtiter plates using the parameters summarized in table S1 and as already described in [2]. Stocks of the test organisms were generated by growing the organisms overnight in 250 mL (Candida albicans [DSM 11225], [DSM 1665], CAI-4 HWP1-lacZ, Candida auris [DSM 21092]) or 50 mL shaking (the rest organisms) flasks filled with 25 mL of the growth medium at 140 rpm (for media and temperatures see table S1). After incubation overnight, the OD of the suspension was measured and adjusted by diluting with the respective growth medium. OD600 nm was adjusted to 0.01 for bacteria and OD600 nm to 0.1 for fungi and 150 μL of the adjusted suspensions were added to all wells of a 96-well microtiter plate (one test organism per plate). Subsequently, additional 130 μL (1 mg/mL tested compounds) or 142.5 μL (10 mg/mL tested compounds ) of suspensions, plus 20 μL (1 mg/mL tested compounds) respectively 7.5 μL (10 mg/mL tested compounds ) of the test compounds were added to first row. C ontrols (one compound/column) were added as well: MeOH were used as solvent control, while different positive controls (reference drugs ) were used for the according test organisms (see table S1). Starting from row A, 150 μL of the suspension were transferred […]
(§4) to the next row, the contents thoroughly mixed, and 150 μL transferred to the following row. The remaining 150 μL after row H were discarded.
(§5) 66.7 μg/mL in row A to 0.52 μg/mL in row H (1 mg/mL tested compounds) or 250 μg/mL in row A to 2 μg/mL in row H (10 mg/mL tested compounds).
(§6) The 96-well microtiter plates were then incubated overnight on a microplate shaker at 800 rpm at 30 or 37 °C (see table S1) and were visually evaluated the next day. The MIC is defined as the lowest concentration where no growth of the test organism was observed. A lower MIC thus corresponds to a higher antimicrobial activity […]
(§7) Table S1: MIC assay experiment parameters.
(§8) Tested organisms Strain No. Growth Incubation Positive control medium temp. [°C ] (reference)
(§9) KB-3-1 (ACC 158) cervix carcinoma as well as L929 (ACC 2) mouse fibroblasts were cultured under standard cell culture conditions (37 °C, 5% CO2, 95% humidified atmosphere). The cells were maintained in high glucose DMEM containing 10% fetal bovine serum and 100 U/mL penicillin and streptomycin (Gibco, Thermo Fisher Scientific, Waltham, USA). Cell lines were serially passaged after trypsinization, using 0.05% trypsin / 0.02% EDTA solution. The cultures were routinely monitored for potential contamination, and only mycoplasma free cultures were used. The test compounds were investigated for their anti-proliferative effect on cell lines, using the 3-(4,5-dimethylthiazol-2-yl)-2,5-diphenyltetrazolium bromide (MTT) based cell viability assay. […]

[2] = tested on: C. albicans CAI-4 HWP1-lacZ [ZK3379]; assay: MIC assay, C. albicans CAI-4 HWP1-lacZ; format: cell-based, Candida albicans; details: tested 250–2 µg/mL
Procedure: as §1, §2, §3, §4, §5, §6, §7, §8, §9

C. auris [DSM 21092] = assay: MIC assay, C. auris; format: cell-based, Candida auris; details: tested 250–2 µg/mL
Procedure: as §1, §2, §3, §4, §5, §6, §7, §8, §9

C. auris biofilm = assay: Crystal violet biofilm formation assay, C. auris; format: cell-based, Candida auris; details: for effect on formation of C. auris biofilms: CV assay, 24 h treatment; for inhibition at 2 µg/mL / inhibition at 3.9 µg/mL / inhibition at 7.8 µg/mL / inhibition at 15.6 µg/mL / inhibition at 31.3 µg/mL / inhibition at 62.5 µg/mL / inhibition at 125 µg/mL / inhibition at 250 µg/mL: Candidozyma auris, read-out: inhibition of C. auris biofilm formation compared to solvent control (= 0%)
Procedure: (§10) The fungal pathogens C. auris [[…]] or C. albicans [DSM 11225] were cultured from stock in 25 mL YPD medium in a 250 mL flask (30 °C, 100 rpm, 18 h). The turbidity of the broth was measured at 280 nm using a spectrophotometer (Nanodrop 2000c, Thermo Fisher Scientific, Waltham, MA, USA) and diluted to match the turbidity of a 0.5 McFarland standard in RPMI 1640 medium (Gibco, New York, NY, USA; Thermo Fisher Scientific), supplemented with […] 3-(N-morpholino)propanesulfonic acid (MOPS, Carl Roth, Karlsruhe, Germany) for C. auris, or 0.05 McFarland standard in RPMI 1640 medium in the case of C. albicans. Subsequently, 150 μL of the fungal dispersion were added into each well of a 96-well microtiter plate (Falcon no. 351172, Thermo Fisher Scientific) and further incubated (37 °C, 150 rpm, 2 h [C. auris] or 90 min [C. albicans]). The supernatant was discarded and the plate was rinsed one time by using a PBS buffer. Afterwards, azaphilones (Rub A, C, W, Z, and Rut A and B) were serially diluted in 150 μL in fresh medium to concentrations of 250–2 μg/mL (Rub C for C. auris: 250–0.02 μg/mL). Methanol (2.5%) was used as a solvent control and both, nystatin (NYS; Thermo Fisher Scientific) and farnesol (FA; Sigma Aldrich, St. Louis, MO, USA) as positive controls (250–2 μg/mL) for C. auris and C. albicans, respectively. Plates were further incubated (37 °C, 150 rpm, 24 h). The supernatant was discarded and biofilms were washed with PBS, stained by adding 150 μL of the crystal violet (CV; Sigma Aldrich) solution (0.1%), and incubated (room temperature, 25 min). Afterwards, the plates were washed twice with PBS buffer. A total of 150 μL ethanol (95%) were applied to dissolve the biofilm-bound CV. The absorbance was measured by a plate reader (Synergy 2, BioTek, Santa Clara, CA, USA) at 570 nm for C. auris or 610 nm for C. albicans. Error bars indicate SD with duplicates in two biological repeats.

[3] = tested on: C. albicans [DSM 11225] biofilm; assay: Crystal violet biofilm formation assay, C. albicans; format: cell-based, Candida albicans; details: CV assay, 24 h treatment
Procedure: as §10, with “Methanol (2.5%) was used as a solvent control and both, nystatin (NYS; Thermo Fisher Scientific) and farnesol (FA; Sigma Aldrich, St. Louis, MO, USA) as positive controls (250–2 μg/mL) for C. auris and C. albicans, respectively. Plates were further incubated (37 °C, 150 rpm, 24 h). The supernatant was discarded and biofilms were washed with PBS, stained by adding 150 μL of the crystal violet (CV; Sigma Aldrich) solution (0.1%), and incubated (room temperature, 25 min). Afterwards, the plates were washed twice with PBS buffer. A total of 150 μL ethanol (95%) were applied to dissolve the biofilm-bound CV.” left out, “Error bars indicate SD with duplicates in two biological repeats.” left out

C. albicans [DSM 1665] = tested on: C. albicans [DSM 1665]; design: method as in doi:10.1002/ejoc.202001661; details: highest tested concentration 250 µg/mL; cited from earlier work
[4] = tested on: human endocervical adenocarcinoma KB-3-1 [ACC 158] cells; details: cited from earlier work
[5] = tested on: mouse fibroblasts L929 [ACC 2]; details: cited from earlier work
[6] = tested on: murine fibroblasts (L929) and human endocervical adenocarcinoma cells (KB-3-1); design: method as in doi:10.1002/ejoc.202001661; details: range over Rub A and Rub Z and over both cell lines; cited from earlier work

Compound: Cc1cc(O)cc(O)c1C(=O)O [OA, orsellinic acid]
- cytotoxicity [1]: no cytotoxicity

Compound: CC(=O)OC/C=C/C1=CC2=C(CO1)C(=O)[C@@](C)(O)[C@@H](OC(=O)c1c(C)cc(O)cc1O)C2 [Rub A, rubiginosin A]
- MIC (C. albicans [DSM 11225]): no antimicrobial activity
- MIC [2]: no antimicrobial activity
- MIC (C. auris [DSM 21092]): no antimicrobial activity
- effect on formation of C. auris biofilms (C. auris biofilm): did not affect the formation
- inhibition at 2 µg/mL (C. auris biofilm): < 20%
- inhibition at 3.9 µg/mL (C. auris biofilm): < 20%
- inhibition at 7.8 µg/mL (C. auris biofilm): < 20%
- inhibition at 15.6 µg/mL (C. auris biofilm): < 20%
- inhibition at 31.3 µg/mL (C. auris biofilm): < 20%
- inhibition at 62.5 µg/mL (C. auris biofilm): < 20%
- inhibition at 125 µg/mL (C. auris biofilm): < 20%
- inhibition at 250 µg/mL (C. auris biofilm): < 20%
- concentration above which significant effects on C. albicans biofilm formation start [3]: above 31.3 µg/mL
- MIC (C. albicans [DSM 1665]): no antimicrobial activity
- IC50 [4]: 5.2 µM
- IC50 [5]: 3.2 µM
- IC50 values between [6]: 2.6 to 4.5 µg/mL

Compound: CC(=O)OC/C=C/C1=CC2=C(CO1)C(=O)[C@@](C)(OC(=O)c1c(C)cc(O)cc1O)[C@@H](O)C2 [Rub Z, rubiginosin Z]
- MIC (C. albicans [DSM 11225]): no antimicrobial activity
- MIC [2]: no antimicrobial activity
- MIC (C. auris [DSM 21092]): no antimicrobial activity
- effect on formation of C. auris biofilms (C. auris biofilm): did not affect the formation
- inhibition at 2 µg/mL (C. auris biofilm): < 20%
- inhibition at 3.9 µg/mL (C. auris biofilm): < 20%
- inhibition at 7.8 µg/mL (C. auris biofilm): < 20%
- inhibition at 15.6 µg/mL (C. auris biofilm): < 20%
- inhibition at 31.3 µg/mL (C. auris biofilm): < 20%
- inhibition at 62.5 µg/mL (C. auris biofilm): < 20%
- inhibition at 125 µg/mL (C. auris biofilm): < 20%
- inhibition at 250 µg/mL (C. auris biofilm): < 20%
- MIC (C. albicans [DSM 1665]): no antimicrobial activity
- IC50 [4]: 5.2 µM
- IC50 [5]: 4.7 µM
- IC50 values between [6]: 2.6 to 4.5 µg/mL
